Data published in article PMC4694998, “Suppression of β-catenin/TCF transcriptional activity and colon tumor cell growth by dual inhibition of PDE5 and 10” (Oncotarget, 2015).
Where two headings read alike, the source gives them in different places.

Assays:
[1] = system: cGMP PDE activity in HCT116 lysates; assay: cGMP hydrolysis in lysates from HCT116 colon tumor cells; format: biochemical, human; settings: in words, Figure 1C
Experimental: (§1) PDE activity was measured using the IMAP fluorescence polarization (FP) PDE assay (Molecular Devices) in which binding of hydrolyzed fluorescent cyclic nucleotide substrate to the IMAP reagent increases FP as described previously.

[2] = system: NCM460 normal colonocytes; settings: as previously reported; cited from earlier work
[3] = system: β-catenin/TCF transcriptional activity in HCT116 cells; format: cell-based; settings: HCT116, 24 hours of treatment
Experimental: Cells were seeded at a density of 5 × 10^4 cells per well in 24-well tissue culture plates and incubated overnight at 37°C. Cells were transiently transfected with 0.1 μg TOP-FLASH constructs (Millipore) and 0.1 μg β-galactosidase-expressing vector (Promega). After 24 hours of transfection, cells were treated with ADT-094 or vehicle for 24 hours. At the end of treatment, cells were lysed and both luciferase and β-galactosidase activities were measured using kits from Promega. All luciferase activity was normalized to β-galactosidase activity.

[4] = system: β-catenin signaling in HCT116 colon tumor cells; assay: Western blotting of β-catenin, cyclin D1, survivin, HCT116; format: cell-based, human
Experimental: Western blotting was performed as described previously. Cells were treated with ADT-094 or vehicle for 8 hours before cell lysates were collected.

[5] = system: HCT116 colon tumor cells; assay: Growth assay (Cell Titer Glo), HCT116; format: cell-based, human; settings: for HCT116 colon tumor cell growth: in words, Figure 1B; for IC50: Homo sapiens, HCT-116, 72 h
Experimental: All cell lines were expanded upon delivery, and numerous aliquots of low passage cells were preserved in liquid N2. Cells were passaged no longer than 2 months. Tumor cell lines obtained from ATCC were characterized by STR profiling as performed by ATCC. The NCM460 line was characterized by INCELL as described previously (e.g. tumorigenicity testing). No additional re-authentication of the cell lines was performed except for experimental reasons (e.g. confirmation of cell doubling time, morphology, sensitivity to SS, PDE5/10 expression levels, etc). Cells were plated in 96-well microtiter plates at a density of 5,000 cells per well. For drug treatment, cells were treated with compound or vehicle, and incubated at 37°C for 72 hours. […] For siRNA assays, cells were transfected with siRNA under the same condition described above. The effect of treatment on cell growth was measured using the Cell Titer Glo Assay as specified by the manufacturer (Promega). The IC50 values were determined as described previously. All experiments were repeated a minimum of three times to determine the reproducibility of the results. All error bars represent standard error of the mean (SEM). Statistical analysis of differences between samples was performed using the Student’s t-test.

[6] = biological target: T1, PDE10 (Homo sapiens, UniProt Q9Y233); assay: IMAP fluorescence polarization PDE assay, recombinant PDE10; format: biochemical; settings: recombinant enzyme
T1 construct: purchased BPS Biosciences
T1 sequence (Q9Y233 267-1055): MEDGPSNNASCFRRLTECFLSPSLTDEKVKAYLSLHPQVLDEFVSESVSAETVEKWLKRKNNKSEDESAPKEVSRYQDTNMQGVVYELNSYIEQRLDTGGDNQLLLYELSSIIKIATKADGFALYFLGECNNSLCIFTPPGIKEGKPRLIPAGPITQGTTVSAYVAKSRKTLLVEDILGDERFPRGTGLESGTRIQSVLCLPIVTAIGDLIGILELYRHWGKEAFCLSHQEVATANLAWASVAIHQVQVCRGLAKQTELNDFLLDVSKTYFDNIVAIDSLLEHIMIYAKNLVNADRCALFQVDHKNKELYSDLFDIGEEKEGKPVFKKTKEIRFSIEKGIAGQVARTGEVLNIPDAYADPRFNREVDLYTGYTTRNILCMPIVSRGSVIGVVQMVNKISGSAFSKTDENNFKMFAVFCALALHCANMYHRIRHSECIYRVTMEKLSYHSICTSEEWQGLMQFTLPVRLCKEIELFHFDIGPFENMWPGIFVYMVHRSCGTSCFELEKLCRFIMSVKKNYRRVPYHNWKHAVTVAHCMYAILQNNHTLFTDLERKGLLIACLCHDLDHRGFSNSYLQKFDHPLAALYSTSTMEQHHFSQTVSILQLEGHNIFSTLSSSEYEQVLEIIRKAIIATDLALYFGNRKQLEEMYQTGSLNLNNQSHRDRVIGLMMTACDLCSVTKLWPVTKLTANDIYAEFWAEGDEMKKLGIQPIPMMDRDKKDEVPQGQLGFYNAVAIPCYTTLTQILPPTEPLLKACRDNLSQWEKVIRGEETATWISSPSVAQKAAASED
Experimental: (§2) Recombinant PDE isozymes were purchased from BPS Biosciences. The PDE10 antibody was purchased from GeneTex, while the PDE5 antibody was purchased from Cell Signaling Technologies. Non-targeting control siRNA and PDE10 specific siRNAs were purchased from Qiagen. RNAiMAX transfection reagent was purchased from Invitrogen. DMSO was used as vehicle for all compounds unless otherwise noted. All other reagents were purchased from Sigma.
as §1
(§3) The IC50 values were determined as described previously. All experiments were repeated a minimum of three times to determine the reproducibility of the results. All error bars represent standard error of the mean (SEM). Statistical analysis of differences between samples was performed using the Student’s t-test. A P value of < 0.05 was considered statistically significant.

[7] = biological target: T2, purified ovine COX-1 (Ovis aries, UniProt P05979); assay: COX-1 colorimetric assay; format: biochemical
T2 construct: purchased Cayman
T2 sequence (P05979 25-600): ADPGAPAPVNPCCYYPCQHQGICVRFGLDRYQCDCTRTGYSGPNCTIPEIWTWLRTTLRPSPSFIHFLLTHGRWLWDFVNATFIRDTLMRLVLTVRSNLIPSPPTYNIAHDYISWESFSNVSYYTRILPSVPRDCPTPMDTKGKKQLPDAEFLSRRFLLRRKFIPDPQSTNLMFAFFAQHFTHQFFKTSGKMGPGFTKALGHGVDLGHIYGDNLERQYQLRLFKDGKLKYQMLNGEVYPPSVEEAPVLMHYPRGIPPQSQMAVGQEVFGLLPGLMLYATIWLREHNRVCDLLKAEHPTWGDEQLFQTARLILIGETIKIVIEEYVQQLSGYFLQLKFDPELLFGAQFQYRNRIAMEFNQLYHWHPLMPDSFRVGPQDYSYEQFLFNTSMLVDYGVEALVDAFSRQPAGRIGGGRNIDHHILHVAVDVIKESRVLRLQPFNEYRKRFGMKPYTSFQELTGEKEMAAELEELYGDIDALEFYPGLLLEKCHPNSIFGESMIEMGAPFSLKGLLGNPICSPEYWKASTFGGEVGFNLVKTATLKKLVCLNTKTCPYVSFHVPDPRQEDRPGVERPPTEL
Experimental: COX-1 and COX-2 activities were measured using purified ovine COX-1 and COX-2 with colorimetric assay kits obtained from Cayman as previously reported. The activities of COX-1 and COX-2 were measured after the addition of arachidonic acid and incubation at 25°C for 5 min by absorbance at 590 nm as specified by the manufacturer.
as §3

[8] = system: HT29 colon tumor cells; assay: Growth assay (Cell Titer Glo), HT29; format: cell-based; settings: Homo sapiens, HT-29, 72 h
Experimental: (§4) Human colon tumor cell lines, HCT116, HT29, SW480 and Caco-2 were obtained from the American Type Culture Collection (ATCC) and grown under standard cell culture conditions in RPMI 1640 medium containing 5% serum at 37°C in a humidified atmosphere with 5% CO2. The human colonocyte line, NCM460, that is derived from normal human colon mucosa was obtained from INCELL and grown in INCELL’s enriched M3:10 medium with 10% serum as recommended by supplier. All cell lines were expanded upon delivery, and numerous aliquots of low passage cells were preserved in liquid N2. Cells were passaged no longer than 2 months. Tumor cell lines obtained from ATCC were characterized by STR profiling as performed by ATCC. The NCM460 line was characterized by INCELL as described previously (e.g. tumorigenicity testing). No additional re-authentication of the cell lines was performed except for experimental reasons (e.g. confirmation of cell doubling time, morphology, sensitivity to SS, PDE5/10 expression levels, etc).
(§5) Cells were plated in 96-well microtiter plates at a density of 5,000 cells per well. For drug treatment, cells were treated with compound or vehicle, and incubated at 37°C for 72 hours. All growth assays were performed in 5% serum unless otherwise noted. Deionized water was used as vehicle control for papaverine. For siRNA assays, cells were transfected with siRNA under the same condition described above. The effect of treatment on cell growth was measured using the Cell Titer Glo Assay as specified by the manufacturer (Promega).
as §3

[9] = biological target: T3, PDE5 (Homo sapiens, UniProt O76074); assay: IMAP fluorescence polarization PDE assay, recombinant PDE5; format: biochemical; settings: recombinant enzyme
T3 construct: purchased BPS Biosciences
Experimental: as §2, §1, §3

[10] = system: NCM460 normal colonocytes; assay: Growth assay (Cell Titer Glo), NCM460 normal colonocytes; format: cell-based, human; settings: Homo sapiens, NCM460, 72 h, read-out: NCM460 growth IC50
Experimental: as §4, §5, §3

In the case of `COc1ccc(Cc2nccc3cc(OC)c(OC)cc23)cc1OC` [papaverine], the “cGMP hydrolysis in HCT116 lysates” value [1] is listed as “inhibited cGMP hydrolysis”, the growth of colonocytes [2] is listed as “did not significantly affect” and the β-catenin/TCF transcriptional activity [3] is listed as “reduced”. For the same compound, the expression of survivin [4] was “reduced”, the β-catenin levels [4] was “reduced” and the “HCT116 colon tumor cell growth” value [5] was “effectively inhibit”.

Work on `CSc1ccc(/C=C2/C(C)=C(CC(=O)O)c3cc(F)ccc32)cc1` [SS, Sulindac sulfide, reference compound] yielded an IC50 [6] of 70 µM, an IC50 [7] of 1.2 µM and an IC50 ([8]; read-out: HT29 growth IC50, 72 hours of treatment) of 68 µM. The IC50 ([8]; read-out: HT29 growth IC50, Figure 3C, luciferase-based ATP assay, 72 hours) was 63.8 µM, the IC50 [9] was 38 µM and the IC50 ([5]; read-out: HCT116 growth IC50, 72 hours of treatment) was 51 µM. The IC50 ([5]; read-out: HCT116 growth IC50, Figure 3C, luciferase-based ATP assay, 72 hours) was 51.1 µM and the IC50 [10] was over 100 µM.

For `Clc1cccc(Nc2nnc(-c3ccccc3)c3ccccc23)c1` [MY5445, 1-(3-chlorophenylamino)-4-phenylphthalazine], the “cGMP hydrolysis in HCT116 lysates” value [1] is listed as “inhibited cGMP hydrolysis”, the growth of colonocytes [2] is listed as “did not significantly affect” and the β-catenin/TCF transcriptional activity [3] is listed as “reduced”. For the same compound, the expression of survivin [4] was “reduced”, the β-catenin levels [4] was “reduced” and the “HCT116 colon tumor cell growth” value [5] was “effectively inhibit”.
